Values of other authors as cited in patent US8288391B2, “Pyrazinoylguanidine compounds for use as taste modulators” (Parion Sciences, Inc., priority 2007, dated 2012).

Target: T1, ENaC (Rattus norvegicus, UniProt P37089+P37090+P37091)
T1 construct: receptor cells in taste buds and some surrounding non-taste epithelia) through apical membrane ENaC; host or cells: rat in vivo: taste nerve (chorda tympani) response, with endogenous channel of lingual taste receptor cells
T1 sequence (P37089 1-698): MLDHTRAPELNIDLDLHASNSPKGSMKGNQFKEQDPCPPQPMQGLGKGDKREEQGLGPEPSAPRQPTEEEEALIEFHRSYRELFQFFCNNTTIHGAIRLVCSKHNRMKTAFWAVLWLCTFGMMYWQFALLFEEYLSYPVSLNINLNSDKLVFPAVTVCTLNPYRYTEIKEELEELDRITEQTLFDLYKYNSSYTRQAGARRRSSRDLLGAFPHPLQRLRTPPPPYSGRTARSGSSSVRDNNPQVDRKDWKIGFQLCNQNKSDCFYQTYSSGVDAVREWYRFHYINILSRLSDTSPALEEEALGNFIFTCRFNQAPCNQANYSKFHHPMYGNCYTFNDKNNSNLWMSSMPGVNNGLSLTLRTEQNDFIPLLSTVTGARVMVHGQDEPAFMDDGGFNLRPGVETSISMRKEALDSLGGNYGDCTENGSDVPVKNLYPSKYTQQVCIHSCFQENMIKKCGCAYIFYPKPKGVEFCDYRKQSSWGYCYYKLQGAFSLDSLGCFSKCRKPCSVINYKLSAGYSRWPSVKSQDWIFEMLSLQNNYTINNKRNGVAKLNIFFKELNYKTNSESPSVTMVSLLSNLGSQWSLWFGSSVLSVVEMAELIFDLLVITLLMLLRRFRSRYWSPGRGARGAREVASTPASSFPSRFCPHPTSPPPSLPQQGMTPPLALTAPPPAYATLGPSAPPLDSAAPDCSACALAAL
T1 sequence (P37090 1-638): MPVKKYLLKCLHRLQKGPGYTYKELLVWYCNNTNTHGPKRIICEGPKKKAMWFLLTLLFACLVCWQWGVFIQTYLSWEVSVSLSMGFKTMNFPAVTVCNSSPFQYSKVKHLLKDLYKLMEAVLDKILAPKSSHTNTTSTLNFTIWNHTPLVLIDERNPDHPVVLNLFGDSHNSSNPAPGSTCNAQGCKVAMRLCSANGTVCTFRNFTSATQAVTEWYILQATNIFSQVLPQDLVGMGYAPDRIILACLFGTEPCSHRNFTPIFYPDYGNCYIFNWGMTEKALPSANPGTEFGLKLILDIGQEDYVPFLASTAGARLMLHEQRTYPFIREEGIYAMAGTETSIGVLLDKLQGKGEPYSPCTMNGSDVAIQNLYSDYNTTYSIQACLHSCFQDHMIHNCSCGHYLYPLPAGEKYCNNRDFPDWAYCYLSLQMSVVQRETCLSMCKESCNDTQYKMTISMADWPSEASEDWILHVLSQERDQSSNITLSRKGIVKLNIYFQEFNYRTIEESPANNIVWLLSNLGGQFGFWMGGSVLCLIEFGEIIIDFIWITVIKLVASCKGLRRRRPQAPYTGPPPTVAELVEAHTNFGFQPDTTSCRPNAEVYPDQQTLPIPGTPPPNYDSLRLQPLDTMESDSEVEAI
T1 sequence (P37091 1-650): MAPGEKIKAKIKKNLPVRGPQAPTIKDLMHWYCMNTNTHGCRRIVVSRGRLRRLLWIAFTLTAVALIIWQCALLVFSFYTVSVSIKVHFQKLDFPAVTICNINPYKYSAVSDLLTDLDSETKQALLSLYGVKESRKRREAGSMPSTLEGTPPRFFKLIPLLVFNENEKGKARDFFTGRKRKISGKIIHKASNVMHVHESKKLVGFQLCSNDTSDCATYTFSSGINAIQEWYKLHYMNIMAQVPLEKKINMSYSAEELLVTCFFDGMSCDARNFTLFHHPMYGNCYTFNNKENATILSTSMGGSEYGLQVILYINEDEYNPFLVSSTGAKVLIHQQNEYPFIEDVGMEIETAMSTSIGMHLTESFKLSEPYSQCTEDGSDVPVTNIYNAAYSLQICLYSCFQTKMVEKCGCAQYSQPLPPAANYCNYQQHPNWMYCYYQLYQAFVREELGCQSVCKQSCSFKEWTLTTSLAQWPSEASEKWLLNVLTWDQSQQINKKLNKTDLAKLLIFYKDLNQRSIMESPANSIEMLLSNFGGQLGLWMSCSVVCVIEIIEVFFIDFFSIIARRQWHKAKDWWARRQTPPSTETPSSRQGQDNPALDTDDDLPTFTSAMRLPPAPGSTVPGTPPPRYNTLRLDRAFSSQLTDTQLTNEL
Conditions: rats; 100 mM NaCl; share of total taste response

In the case of `N=C(N)NC(=O)c1nc(Cl)c(N)nc1N` [amiloride], the “amiloride-sensitive part of the total response to NaCl” value is listed as 75%-80%.
